Oligonucleotides are written 5' to 3', each unit as a sugar letter and its base; * is a phosphorothioate linkage, no mark a phosphodiester; rarer units and linkages stand in square brackets, end groups in braces. Plain capitals give the bases only. d = 2'-deoxy (DNA); m = 2'-O-methyl

The values below come from patent US8012944B2, “Method for treating cancer using IAP antisense oligomer and chemotherapeutic agent” (Pharmascience Inc., priority 2003, dated 2011).

Series [1] relates to XIAP mRNA. The series is described as follows: XIAP mRNA knock-down in H460 cells (real-time RT-PCR / TaqMan). In kind it is cell-based, human. The following applies: 2 × 2 MBO; NCI-H460 cells, 9 hours post-transfection; relative level (mock control 1.01). A general note: In qPCR the cycle at which signal appears reflects the starting amount.
Series [2] relates to XIAP mRNA. The series is described as above. In kind it is cell-based, human. Here is the method: RNA was extracted from cells lysed in RLT buffer (QIAGEN, Valencia, Calif.), and purified using QIAGEN RNeasy columns/kits. Real-time quantitative PCR was performed on a Perkin-Elmer ABI 7700 Prism PCR machine. RNA was reverse transcribed and amplified according to the TaqMan Universal PCR Master Mix protocol of PE Biosystems, using primers and probes designed to specifically recognize XIAP, HIAP1, survivin, or GAPDH. For human survivin, the forward primer was 5′-[…]-3′ (SEQ ID NO: 263), the reverse primer was 5′-GAAAGGAAAGCGCAACCG-3′ (SEQ ID NO: 264), and the probe was 5′-(FAM)[…](TAMRA)-3′ (SEQ ID NO: 265). For human HIAP1, the forward primer was 5′-[…]-3′ (SEQ ID NO: 266), the reverse primer was 5′-[…]-3′ (SEQ ID NO: 267), and the probe was 5′-(FAM)[…](TAMRA)-3′ (SEQ ID NO: 268). For human XIAP, the forward primer was 5′-[…]-3′ (SEQ ID NO: 269), the reverse primer was 5′-[…]-3′ (SEQ ID NO: 270), and the probe was 5′-(FAM)[…](TAMRA)-3′ (SEQ ID NO: 271). For human GAPDH, the forward primer was 5′-GAAGGTGAAGGTCGGAGTC-3′ (SEQ ID NO: 272), the reverse primer was 5′-GAAGATGGTGATGGGATTC-3′ (SEQ ID NO: 273), and the probe was 5′-(JOE)[…](TAMRA)-3′ (SEQ ID NO: 274). FAM is 6-carboxyfluoroscein, JOE is 6-carboxy-4,5-dichloro-2,7-dimethoxyfluoroscein, and TAMRA is 6-carboxy-N,N,N′,N′-tetramethylrhodamine. FAM and JOE are 5′ reporter dyes, while TAMRA is a 3′ quencher dye.
Relative quantification of gene expression was performed as described in the PE Biosystems manual using GAPDH as an internal standard. The comparative Ct (cycle threshold) method was used for relative quantitation of IAP mRNA levels compared to GAPDH mRNA levels. Briefly, real-time fluorescence measurements were taken at each PCR cycle and the threshold cycle (Ct) value for each sample was calculated by determining the point at which fluorescence exceeded a threshold limit of 30 times the baseline standard deviation. The average baseline value and the baseline SD are calculated starting from the third cycle baseline value and stopping at the baseline value three cycles before the signal starts to exponentially rise. The PCR primers and/or probes for the specific IAPs were designed to span at least one exon-intron boundary separated by 1 kb or more of genomic DNA, to reduce the possibility of amplifying and detecting genomic DNA contamination. The specificity of the signal, and possible contamination from DNA, were verified by treating some RNA samples with either DNase or RNase, prior to performing the reverse transcription and PCR reaction steps.
A portion of the 96 nucleobase oligomers depicted in Table 2 were rescreened for their ability to knock-down XIAP mRNA in NCI-H460 cells at […] post-transfection.
One day prior to transfection, H460 cells were plated in 6- or 96-well tissue culture plates. Phosphorothioate antisense oligonucleotides were delivered into cells with Lipofectamine 2000 (Life Technologies) in the form of liposome-oligonucleotide complexes. Following a 4.5 or 6 h transfection, the transfection medium was replaced with RPMI medium containing 10% FBS, and the cells incubated for another 24 or 48 h.
Total RNA from H460 cells treated with liposome-oligonucleotide complexes for 6 hours was immediately isolated using RNeasy mini spin columns and DNase treatment (QIAGEN, Valencia, Calif.). Specific XIAP mRNA was measured using a real-time quantitative RT-PCR method. […]

On to “TGTTCTAACAGATATTTGC (antisense; sugars from the 5' end m2 d15 m2, backbone, methylation of C and T or U not given here; further chemistry not fully specified) [Code G8]”, for which, in series [1], the “XIAP RNA” value is 0.64. Moreover, the “XIAP down-regulation H460 RNA” value in series [2] is 49%.
For “TAGATCTGGAACCAGAACC (antisense; sugars from the 5' end m2 d15 m2, backbone, methylation of C and T or U not given here; further chemistry not fully specified) [Code C10]” the same measures were 0.56 and 53%.
Consider “GCGGCCCAAAACAAAGAAG (antisense CCGGCCCAAAACAAAGAAG; sugars from the 5' end m2 d15 m2, linkages s1 o16 s1 (s phosphorothioate, o phosphodiester), methylation of C not given here) [Code C7]”, for which the “XIAP RNA” value in series [1] was 0.27. Also, in series [2], the “XIAP down-regulation H460 RNA” value stood at 72%.
“TTAGCAAAATATGTTTTAA (antisense; sugars from the 5' end m2 d15 m2, backbone and T or U not given here; further chemistry not fully specified) [Code G1]”: the “XIAP RNA” value in series [1] is on record as 0.67. For the same substance, the “XIAP down-regulation H460 RNA” value in series [2] is given as 33%.
“AAGCAGTGCACTTGGTCAC (antisense; sugars from the 5' end m2 d15 m2, linkages s1 o16 s1 (s phosphorothioate, o phosphodiester), methylation of C not given here) [Code G6]”: the “XIAP down-regulation H460 RNA” value in series [2] is listed as 69%.
Consider “ATTCAAGGGATCAAAGTTG (antisense; sugars from the 5' end m2 d15 m2, backbone and T or U not given here; further chemistry not fully specified) [Code A2]”, for which, in series [1], the “XIAP RNA” value worked out at 0.42. In addition, the “XIAP down-regulation H460 RNA” value in series [2] stood at 58%.
For the substance “CATCTTGGATACTGTCTTT (antisense; sugars from the 5' end m2 d15 m2, backbone, methylation of C and T or U not given here; further chemistry not fully specified) [Code D10]”, the “XIAP RNA” value in series [1] was 0.54. Besides, the “XIAP down-regulation H460 RNA” value in series [2] is reported as 55%.
The like results for “AATGTGAAACACAAGCAAC (antisense AANGNGAAACACAAGCAAC; sugars from the 5' end m2 d15 m2, linkages s1 o16 s1 (s phosphorothioate, o phosphodiester), the base at N not given here) [Code C3]” were, in that order, 0.55 and 43%.
On to “GTGTCTGATATATCTACAA (antisense; sugars from the 5' end m2 d15 m2, backbone and T or U not given here; further chemistry not fully specified) [Code H5]”, for which, in series [1], the “XIAP RNA” value turned out to be 0.59. Besides, in series [2], the “XIAP down-regulation H460 RNA” value amounted to 39%.
As for “ATGATCTCTGCTTCCCAGA (antisense; sugars from the 5' end m2 d15 m2, backbone and T or U not given here; further chemistry not fully specified) [Code E5]”, the “XIAP RNA” value in series [1] was found to be 0.52. Also, the “XIAP down-regulation H460 RNA” value in series [2] was found to be 46%.
As for “TTACCACATCATTCAAGTC (antisense; sugars from the 5' end m2 d15 m2, backbone and T or U not given here; further chemistry not fully specified) [Code F2]”, the “XIAP RNA” value in series [1] is recorded as 0.64. The “XIAP down-regulation H460 RNA” value in series [2] came to 34%.
For “ATATTTCTATCCATACAGA (antisense; sugars from the 5' end m2 d15 m2, backbone, methylation of C and T or U not given here; further chemistry not fully specified) [Code G10]” the same measures were 0.49 and 56%.
Regarding “ACATTATATTAGGAAATCC (mA*mCdAdTdTdAdTdAdTdTdAdGdGdAdAdAdTmC*mC; antisense) [Code D3]”, the “XIAP RNA” value in series [1] was found to be 0.68. The “XIAP down-regulation H460 RNA” value in series [2] is on record as 30%.
As to “CTAAATACTAGAGTTCGAC (antisense; sugars from the 5' end m2 d15 m2, backbone and T or U not given here; further chemistry not fully specified) [Code G2]”, the “XIAP RNA” value in series [1] is reported as 0.44. Moreover, the “XIAP down-regulation H460 RNA” value in series [2] is on record as 55%.
The like results for “AGTATGAAATATTTCTGAT (antisense; sugars from the 5' end m2 d15 m2, backbone and T or U not given here; further chemistry not fully specified) [Code E1]” were, in that order, 0.31 and 69%.
Regarding “ACATAGTGTTTTGCCACTT (antisense; sugars from the 5' end m2 d15 m2, backbone, methylation of C and T or U not given here; further chemistry not fully specified) [Code F12]”, the “XIAP RNA” value in series [1] came to 0.26. For the same substance, the “XIAP down-regulation H460 RNA” value in series [2] is reported as 74%.
For “GAAACCACATTTAACAGTT (antisense; sugars from the 5' end m2 d15 m2, backbone, methylation of C and T or U not given here; further chemistry not fully specified) [Code H12]” the same measures were 0.48 and 52%.
Consider “TTCAGTTTTCCACCACAAC (antisense; sugars from the 5' end m2 d15 m2, backbone, methylation of C and T or U not given here; further chemistry not fully specified) [Code H6]”, for which the “XIAP RNA” value in series [1] is 0.31. Also, in series [2], the “XIAP down-regulation H460 RNA” value stood at 68%.
With “GTCAAATCATTAATTAGGA (antisense; sugars from the 5' end m2 d15 m2, backbone and T or U not given here; further chemistry not fully specified) [Code B2]”, in series [1], the “XIAP RNA” value came to 0.45. Further, the “XIAP down-regulation H460 RNA” value in series [2] was found to be 55%.
Consider “AAGTAAAGATCCGTGCTTC (antisense; sugars from the 5' end m2 d15 m2, backbone, methylation of C and T or U not given here; further chemistry not fully specified) [Code H7]”, for which the “XIAP RNA” value in series [1] came out at 0.49. Moreover, the “XIAP down-regulation H460 RNA” value in series [2] turned out to be 63%.
As for “ACTGGGCTTCCAATCAGTT (antisense; sugars from the 5' end m2 d15 m2, backbone, methylation of C and T or U not given here; further chemistry not fully specified) [Code H8]”, the “XIAP RNA” value in series [1] is recorded as 0.61.
For the substance “ATTGGTTCCAATGTGTTCT (antisense; chemistry not fully specified) [Code F1]”, in series [2], the “XIAP down-regulation H460 RNA” value was found to be 81%.
Still for that read-out and setting: to “ACAGGACTACCACTTGGAA (antisense; chemistry not fully specified) [Code B4]” belongs 76%; to “TATCCACTTATGACATAAA (antisense; chemistry not fully specified) [Code A3]”, 27%.
As for “MAmUGACCACTTCCTCTATmGmG (ANGACCACNNCCNCNANGG; 2'-O-methyl modifications, chemistry not fully specified) [DE4 rev, reference compound]”, the “XIAP RNA” value in series [1] is given as 1.06.
